ChEMBL document CHEMBL5465560, “Selectivity Literature for EUbOPEN Chemogenomic Library” (2024)
pIC50: −log10 of the molar value.

Key:
[1] = test system: Phosphatidylinositol 4,5-bisphosphate 3-kinase catalytic subunit alpha isoform (Homo sapiens), P42336 [E545K]; settings: at 10 µM
[2] = biological target: Dual specificity protein kinase CLK4 (Homo sapiens, UniProt Q9HAZ1); test: Selectivity interaction (KinomeScan (DiscoverX)) EUB0000229b CLK4; settings: at 10 µM
[3] = biological target: Maternal embryonic leucine zipper kinase (Homo sapiens) (UniProt Q14680); test: Selectivity interaction (KinomeScan (DiscoverX)) EUB0000666a MELK; settings: at 10 µM
[4] = biological target: Tyrosine-protein kinase Lyn (Homo sapiens, UniProt P07948)
Tyrosine-protein kinase Lyn, sequence (P07948 whole entry): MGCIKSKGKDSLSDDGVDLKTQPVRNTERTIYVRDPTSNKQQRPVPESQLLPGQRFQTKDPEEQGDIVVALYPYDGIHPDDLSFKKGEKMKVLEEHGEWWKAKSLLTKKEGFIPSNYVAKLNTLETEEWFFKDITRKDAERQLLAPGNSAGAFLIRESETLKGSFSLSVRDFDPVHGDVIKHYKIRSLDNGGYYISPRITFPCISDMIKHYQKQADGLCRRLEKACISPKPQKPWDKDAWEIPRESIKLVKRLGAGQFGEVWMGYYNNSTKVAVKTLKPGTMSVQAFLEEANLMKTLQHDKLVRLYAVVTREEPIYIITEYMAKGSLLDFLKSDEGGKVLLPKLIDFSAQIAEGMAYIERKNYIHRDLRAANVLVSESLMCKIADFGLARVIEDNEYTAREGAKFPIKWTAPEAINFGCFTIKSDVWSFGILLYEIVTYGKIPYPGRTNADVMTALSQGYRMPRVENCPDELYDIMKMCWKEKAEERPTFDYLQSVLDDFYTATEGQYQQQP

[5] = biological target: STE20-like serine/threonine-protein kinase (Homo sapiens, UniProt Q9H2G2); test: Selectivity interaction (ActivX KiNativ screen (kinase selectivity in THP-1 cell lysates)) EUB0000639a SLK; assay type: subcellular; settings: lysate
STE20-like serine/threonine-protein kinase, sequence (Q9H2G2 whole entry, looked up): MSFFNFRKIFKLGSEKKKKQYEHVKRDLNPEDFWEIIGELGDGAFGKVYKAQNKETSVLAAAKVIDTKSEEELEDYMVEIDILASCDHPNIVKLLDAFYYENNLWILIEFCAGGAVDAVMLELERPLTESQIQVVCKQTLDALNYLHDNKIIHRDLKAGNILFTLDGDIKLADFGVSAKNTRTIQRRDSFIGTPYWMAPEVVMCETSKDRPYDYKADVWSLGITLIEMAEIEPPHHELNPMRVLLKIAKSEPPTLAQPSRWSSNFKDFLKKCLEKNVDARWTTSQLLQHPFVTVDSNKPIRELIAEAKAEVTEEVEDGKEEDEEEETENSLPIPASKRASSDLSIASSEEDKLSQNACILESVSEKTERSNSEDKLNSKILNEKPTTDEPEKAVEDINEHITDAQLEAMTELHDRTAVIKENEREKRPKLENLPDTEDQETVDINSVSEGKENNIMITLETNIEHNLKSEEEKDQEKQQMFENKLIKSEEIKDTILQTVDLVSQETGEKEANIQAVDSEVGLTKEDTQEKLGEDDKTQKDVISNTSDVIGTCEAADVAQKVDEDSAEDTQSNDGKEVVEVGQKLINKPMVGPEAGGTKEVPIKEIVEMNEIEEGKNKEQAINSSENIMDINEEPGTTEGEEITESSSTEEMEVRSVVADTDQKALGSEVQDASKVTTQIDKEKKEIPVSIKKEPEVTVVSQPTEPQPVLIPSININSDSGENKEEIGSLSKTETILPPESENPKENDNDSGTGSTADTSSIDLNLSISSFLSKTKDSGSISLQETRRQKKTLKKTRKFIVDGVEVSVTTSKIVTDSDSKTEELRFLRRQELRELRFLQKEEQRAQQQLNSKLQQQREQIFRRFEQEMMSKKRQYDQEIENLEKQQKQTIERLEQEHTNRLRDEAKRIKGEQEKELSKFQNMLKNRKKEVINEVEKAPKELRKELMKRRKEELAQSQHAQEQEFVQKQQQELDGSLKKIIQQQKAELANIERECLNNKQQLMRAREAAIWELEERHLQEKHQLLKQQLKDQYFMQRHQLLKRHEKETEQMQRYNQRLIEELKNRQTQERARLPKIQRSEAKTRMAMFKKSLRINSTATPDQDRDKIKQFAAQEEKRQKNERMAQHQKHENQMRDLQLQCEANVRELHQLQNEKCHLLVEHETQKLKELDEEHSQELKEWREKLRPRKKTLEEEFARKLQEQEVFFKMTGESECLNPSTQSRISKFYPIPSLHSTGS

[6] = biological target: Serine/threonine-protein kinase 10 (Homo sapiens) (UniProt O94804); test: Selectivity interaction (ActivX KiNativ screen (kinase selectivity in THP-1 cell lysates)) EUB0000639a STK10; assay type: subcellular; settings: lysate, at 5 µM
Serine/threonine-protein kinase 10 (Homo sapiens), sequence (O94804 whole entry, looked up): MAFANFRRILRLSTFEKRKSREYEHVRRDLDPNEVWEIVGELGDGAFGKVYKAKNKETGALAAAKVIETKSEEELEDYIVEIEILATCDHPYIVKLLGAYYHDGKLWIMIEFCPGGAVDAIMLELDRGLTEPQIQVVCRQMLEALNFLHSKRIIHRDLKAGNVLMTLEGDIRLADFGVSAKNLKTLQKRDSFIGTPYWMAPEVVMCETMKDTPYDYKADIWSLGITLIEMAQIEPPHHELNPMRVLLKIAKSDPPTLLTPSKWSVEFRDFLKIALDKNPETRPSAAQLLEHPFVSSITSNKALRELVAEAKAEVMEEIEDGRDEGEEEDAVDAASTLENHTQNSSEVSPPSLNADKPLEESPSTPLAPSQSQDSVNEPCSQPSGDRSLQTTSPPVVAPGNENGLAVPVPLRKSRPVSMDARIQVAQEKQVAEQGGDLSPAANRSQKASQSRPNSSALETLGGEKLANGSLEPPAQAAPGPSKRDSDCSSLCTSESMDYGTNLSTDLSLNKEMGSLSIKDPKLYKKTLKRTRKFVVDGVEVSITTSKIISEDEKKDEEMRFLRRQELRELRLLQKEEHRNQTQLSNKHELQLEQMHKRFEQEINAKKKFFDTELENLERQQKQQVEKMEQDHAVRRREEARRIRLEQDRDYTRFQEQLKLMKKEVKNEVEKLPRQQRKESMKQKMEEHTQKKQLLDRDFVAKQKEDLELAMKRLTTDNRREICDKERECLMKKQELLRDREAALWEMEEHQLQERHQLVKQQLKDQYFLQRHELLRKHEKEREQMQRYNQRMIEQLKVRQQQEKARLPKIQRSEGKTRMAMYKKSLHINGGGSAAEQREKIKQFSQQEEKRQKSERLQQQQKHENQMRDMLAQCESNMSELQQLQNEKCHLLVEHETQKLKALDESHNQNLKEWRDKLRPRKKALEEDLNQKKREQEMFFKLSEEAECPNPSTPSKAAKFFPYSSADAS

[7] = biological target: Tyrosine-protein kinase CSK (Homo sapiens) (UniProt P41240); test: Selectivity interaction (ActivX KiNativ screen (kinase selectivity in THP-1 cell lysates)) EUB0000639a CSK; assay type: subcellular; settings: lysate, at 0.01 µM
Tyrosine-protein kinase CSK (Homo sapiens), sequence (P41240 2-450 limits assumed): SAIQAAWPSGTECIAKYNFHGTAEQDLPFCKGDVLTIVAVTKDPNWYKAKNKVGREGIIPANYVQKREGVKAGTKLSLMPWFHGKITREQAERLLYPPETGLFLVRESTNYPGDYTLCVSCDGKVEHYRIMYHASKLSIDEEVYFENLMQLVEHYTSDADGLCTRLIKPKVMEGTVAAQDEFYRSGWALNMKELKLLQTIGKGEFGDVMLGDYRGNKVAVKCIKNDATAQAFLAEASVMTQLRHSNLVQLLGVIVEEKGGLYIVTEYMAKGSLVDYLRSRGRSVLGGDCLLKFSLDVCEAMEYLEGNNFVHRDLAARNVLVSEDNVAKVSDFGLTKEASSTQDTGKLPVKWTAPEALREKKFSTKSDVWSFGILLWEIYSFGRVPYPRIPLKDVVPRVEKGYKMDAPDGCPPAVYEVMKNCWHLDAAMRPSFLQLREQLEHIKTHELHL

[8] = biological target: T1, Ephrin type-A receptor 3 (Homo sapiens) (UniProt P29320); test: Selectivity interaction (SelectScreen profiling (Invitrogen)) EUB0000607a EPHA3; settings: at 2 µM
T1 sequence (whole entry): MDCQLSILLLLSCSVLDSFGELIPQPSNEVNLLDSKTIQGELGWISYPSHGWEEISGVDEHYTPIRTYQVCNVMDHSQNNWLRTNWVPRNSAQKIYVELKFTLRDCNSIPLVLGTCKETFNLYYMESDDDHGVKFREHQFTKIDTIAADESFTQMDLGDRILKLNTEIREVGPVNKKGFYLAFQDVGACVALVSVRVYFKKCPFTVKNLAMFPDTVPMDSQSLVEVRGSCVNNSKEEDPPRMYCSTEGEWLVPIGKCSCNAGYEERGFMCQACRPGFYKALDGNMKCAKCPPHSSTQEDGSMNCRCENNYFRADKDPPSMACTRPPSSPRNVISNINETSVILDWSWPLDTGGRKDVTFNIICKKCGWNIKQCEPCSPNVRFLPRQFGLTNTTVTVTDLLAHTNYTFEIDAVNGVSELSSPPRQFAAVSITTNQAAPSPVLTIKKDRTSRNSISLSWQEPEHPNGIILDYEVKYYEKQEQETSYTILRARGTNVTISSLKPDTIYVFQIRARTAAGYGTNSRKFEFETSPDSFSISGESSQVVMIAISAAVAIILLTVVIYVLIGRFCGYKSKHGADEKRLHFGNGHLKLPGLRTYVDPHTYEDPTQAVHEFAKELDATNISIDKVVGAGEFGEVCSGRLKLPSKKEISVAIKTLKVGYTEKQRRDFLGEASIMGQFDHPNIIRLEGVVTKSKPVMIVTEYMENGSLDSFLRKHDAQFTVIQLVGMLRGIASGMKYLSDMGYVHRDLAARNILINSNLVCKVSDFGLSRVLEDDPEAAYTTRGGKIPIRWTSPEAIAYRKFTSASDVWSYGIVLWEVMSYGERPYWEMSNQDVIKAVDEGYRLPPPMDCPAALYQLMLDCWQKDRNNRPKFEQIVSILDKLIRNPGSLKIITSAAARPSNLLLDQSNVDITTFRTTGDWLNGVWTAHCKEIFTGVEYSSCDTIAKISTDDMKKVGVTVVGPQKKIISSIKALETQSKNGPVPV

[9] = biological target: Tyrosine-protein kinase JAK1 (Homo sapiens, UniProt P23458); test: Selectivity interaction (KinomeScan (DiscoverX)) EUB0000695a JAK1; settings: at 100 nM
[10] = biological target: Mitogen-activated protein kinase 14 (Homo sapiens, UniProt Q16539); test: Selectivity interaction (KinomeScan (DiscoverX)) EUB0000695a MAPK14; settings: at 100 nM
Mitogen-activated protein kinase 14, sequence (Q16539 whole entry): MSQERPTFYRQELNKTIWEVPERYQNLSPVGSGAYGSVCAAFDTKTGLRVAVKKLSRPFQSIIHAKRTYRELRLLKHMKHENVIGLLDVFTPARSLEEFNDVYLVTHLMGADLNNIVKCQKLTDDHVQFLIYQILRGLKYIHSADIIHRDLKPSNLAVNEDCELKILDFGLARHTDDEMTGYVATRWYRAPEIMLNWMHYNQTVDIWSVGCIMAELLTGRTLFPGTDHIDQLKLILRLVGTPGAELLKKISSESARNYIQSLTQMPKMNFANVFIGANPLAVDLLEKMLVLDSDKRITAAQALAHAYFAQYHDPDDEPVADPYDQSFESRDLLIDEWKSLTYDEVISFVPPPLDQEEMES

[11] = biological target: Serine/threonine-protein kinase VRK2 (Homo sapiens) (UniProt Q86Y07); test: Selectivity interaction (Ambit KINOMEscan and KiNATiv profiling in Jurkat cells) EUB0000090b VRK2; assay type: cell-based; settings: at 1 µM
[12] = biological target: T2, Ephrin type-B receptor 4 (Homo sapiens) (UniProt P54760); test: Selectivity interaction (Kinase screening (Nanosyn)) EUB0000604a EPHB4
T2 sequence (whole entry): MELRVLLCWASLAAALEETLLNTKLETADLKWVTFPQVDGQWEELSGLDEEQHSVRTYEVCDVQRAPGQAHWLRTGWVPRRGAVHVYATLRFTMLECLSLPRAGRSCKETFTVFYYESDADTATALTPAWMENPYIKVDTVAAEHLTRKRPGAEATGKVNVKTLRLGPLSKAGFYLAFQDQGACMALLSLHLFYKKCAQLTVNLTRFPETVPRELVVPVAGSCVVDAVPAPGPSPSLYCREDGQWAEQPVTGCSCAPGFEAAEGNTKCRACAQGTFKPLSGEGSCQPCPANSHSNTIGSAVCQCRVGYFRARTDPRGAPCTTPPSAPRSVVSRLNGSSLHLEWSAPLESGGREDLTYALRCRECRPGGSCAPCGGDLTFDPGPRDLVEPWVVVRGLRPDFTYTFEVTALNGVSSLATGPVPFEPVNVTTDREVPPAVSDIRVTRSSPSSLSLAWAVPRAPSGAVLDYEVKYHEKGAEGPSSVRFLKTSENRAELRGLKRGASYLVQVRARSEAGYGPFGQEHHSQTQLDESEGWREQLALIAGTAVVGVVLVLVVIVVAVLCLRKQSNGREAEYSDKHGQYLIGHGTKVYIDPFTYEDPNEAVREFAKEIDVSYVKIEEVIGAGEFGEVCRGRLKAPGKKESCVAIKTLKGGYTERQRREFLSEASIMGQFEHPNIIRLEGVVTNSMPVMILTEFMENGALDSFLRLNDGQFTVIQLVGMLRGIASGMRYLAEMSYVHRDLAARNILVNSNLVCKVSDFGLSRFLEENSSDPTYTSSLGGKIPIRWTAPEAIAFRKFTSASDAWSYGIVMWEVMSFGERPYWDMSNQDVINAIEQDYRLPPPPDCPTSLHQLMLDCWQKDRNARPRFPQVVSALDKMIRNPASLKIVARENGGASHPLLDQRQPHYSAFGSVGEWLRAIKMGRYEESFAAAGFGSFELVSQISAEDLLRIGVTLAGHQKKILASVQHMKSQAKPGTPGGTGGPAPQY

Dual specificity protein kinase CLK4, sequence (Q9HAZ1 whole entry, looked up): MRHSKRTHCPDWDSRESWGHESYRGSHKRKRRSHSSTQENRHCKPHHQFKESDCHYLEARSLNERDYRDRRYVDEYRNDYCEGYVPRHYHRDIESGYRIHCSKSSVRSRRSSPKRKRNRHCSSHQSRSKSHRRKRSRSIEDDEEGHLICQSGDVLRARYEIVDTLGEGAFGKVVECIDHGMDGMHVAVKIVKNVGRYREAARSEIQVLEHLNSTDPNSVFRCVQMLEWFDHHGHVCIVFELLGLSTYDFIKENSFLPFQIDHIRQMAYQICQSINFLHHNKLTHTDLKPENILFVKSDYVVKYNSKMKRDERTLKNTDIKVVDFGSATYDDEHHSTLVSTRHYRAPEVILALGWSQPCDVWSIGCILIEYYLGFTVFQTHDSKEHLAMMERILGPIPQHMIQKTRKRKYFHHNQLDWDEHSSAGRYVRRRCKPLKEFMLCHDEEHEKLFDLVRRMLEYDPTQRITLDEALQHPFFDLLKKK
Phosphatidylinositol 4,5-bisphosphate 3-kinase catalytic subunit alpha isoform (Homo sapiens), P42336 [E545K], sequence (P42336 whole entry E545K, canonical isoform): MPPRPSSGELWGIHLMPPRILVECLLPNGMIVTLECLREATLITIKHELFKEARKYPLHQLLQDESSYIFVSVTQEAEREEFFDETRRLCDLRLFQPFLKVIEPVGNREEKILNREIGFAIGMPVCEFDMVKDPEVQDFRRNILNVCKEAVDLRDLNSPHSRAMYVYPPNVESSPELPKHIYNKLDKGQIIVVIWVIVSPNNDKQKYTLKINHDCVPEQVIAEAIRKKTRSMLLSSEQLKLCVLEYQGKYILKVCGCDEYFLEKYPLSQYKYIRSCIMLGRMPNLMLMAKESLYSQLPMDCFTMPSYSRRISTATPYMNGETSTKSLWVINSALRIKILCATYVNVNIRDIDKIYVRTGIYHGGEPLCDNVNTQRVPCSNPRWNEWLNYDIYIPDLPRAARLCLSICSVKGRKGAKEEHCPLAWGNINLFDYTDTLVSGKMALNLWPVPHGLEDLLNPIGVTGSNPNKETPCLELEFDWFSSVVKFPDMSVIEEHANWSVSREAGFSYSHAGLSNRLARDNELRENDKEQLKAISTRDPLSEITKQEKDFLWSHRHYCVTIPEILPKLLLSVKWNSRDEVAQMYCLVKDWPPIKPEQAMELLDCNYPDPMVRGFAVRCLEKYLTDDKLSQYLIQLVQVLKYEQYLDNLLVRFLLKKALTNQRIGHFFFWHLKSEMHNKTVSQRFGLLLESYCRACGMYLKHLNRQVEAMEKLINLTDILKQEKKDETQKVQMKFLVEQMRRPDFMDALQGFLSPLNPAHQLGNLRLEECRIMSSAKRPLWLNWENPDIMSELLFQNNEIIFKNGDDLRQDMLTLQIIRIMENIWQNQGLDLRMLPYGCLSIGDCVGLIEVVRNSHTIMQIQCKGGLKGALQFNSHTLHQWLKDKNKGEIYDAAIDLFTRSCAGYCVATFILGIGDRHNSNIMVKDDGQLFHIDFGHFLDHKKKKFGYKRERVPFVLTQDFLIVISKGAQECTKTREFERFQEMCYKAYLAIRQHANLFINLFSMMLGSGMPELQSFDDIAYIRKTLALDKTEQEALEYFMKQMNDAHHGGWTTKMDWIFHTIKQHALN

`CCN(CC)CCCCNc1ncc2cc(-c3cc(OC)cc(OC)c3)c(NC(=O)NC(C)(C)C)nc2n1` gave a % of control [1] of 100%.
`COc1cc(N(C)c2ccnc3ccc(C(F)(F)F)cc23)cc(OC)c1OC` gave a % binding [2] of 88%.
`O=C(NOC[C@H](O)CO)c1ccc(F)c(F)c1Nc1ccc(I)cc1F` gave a % of control [3] of 80%.
`CCc1cccc(CC)c1NC(=O)c1nn(C)c2c1CCc1cnc(Nc3ccc(C(=O)NC4CCN(C)CC4)cc3OC(F)(F)F)nc1-2` showed a pIC50 [4] of less than 5.00.
Work on `CC[C@@H]1[C@H](F)C(=O)N[C@@H]1COc1nccc2cc(C(N)=O)c(OC)cc12` [ZIMLOVISERTIB] yielded a % of inhibition ([5]; at 0.01 µM) of 3.3%, a % of inhibition ([5]; at 0.04 µM) of -3.6% and a % of inhibition ([5]; at 0.2 µM) of -8.9%. For the same compound, the % of inhibition ([5]; at 1 µM) was -13.7%, the % of inhibition ([5]; at 5 µM) was -7.8% and the % of inhibition [6] was -16.6%. For the same compound, the % of inhibition [7] was 2.3%.
`CNC(=O)Nc1ccc(-c2nc(N3CC4CCC(C3)O4)c3cnn(C4CCC5(CC4)OCCO5)c3n2)cc1` was tested, and the % of inhibition [8] was 4%.
`Cc1cc(F)c(C(=O)Nc2cccc(-c3nncn3C(C)C)n2)cc1-n1cnc(C2CC2)c1` gave a % of control [9] of 93% and a % of control [10] of 100%.
`CN(C)C/C=C/C(=O)Nc1ccc(C(=O)N2CCCC(Nc3ncc(Cl)c(-c4c[nH]c5ccccc45)n3)C2)cc1` (stereo unspecified) gave a % of control [11] of 97%.
For `Cc1cnc(Nc2ccc(F)cc2Cl)nc1-c1c[nH]c(C(=O)N[C@H](CO)c2cccc(Cl)c2)c1`, the % of inhibition [12] was 0%.
